“And” between values parts separate entries of the source, which are not always exact repeats. Equal values may be shown once.
Tests used:
[1] = molecular target: Voltage-dependent L-type calcium channel subunit alpha-1C (Rattus norvegicus, UniProt P22002); format: functional
Vasopressin V2 receptor = Vasopressin V2 receptor (Homo sapiens, UniProt P30518)
Histamine H2 receptor = Histamine H2 receptor (Homo sapiens, UniProt P25021); format: functional, cell-based
[2] = molecular target: T1, Gastrin/cholecystokinin type B receptor (Homo sapiens, UniProt P32239)
T1 sequence (P32239 whole entry): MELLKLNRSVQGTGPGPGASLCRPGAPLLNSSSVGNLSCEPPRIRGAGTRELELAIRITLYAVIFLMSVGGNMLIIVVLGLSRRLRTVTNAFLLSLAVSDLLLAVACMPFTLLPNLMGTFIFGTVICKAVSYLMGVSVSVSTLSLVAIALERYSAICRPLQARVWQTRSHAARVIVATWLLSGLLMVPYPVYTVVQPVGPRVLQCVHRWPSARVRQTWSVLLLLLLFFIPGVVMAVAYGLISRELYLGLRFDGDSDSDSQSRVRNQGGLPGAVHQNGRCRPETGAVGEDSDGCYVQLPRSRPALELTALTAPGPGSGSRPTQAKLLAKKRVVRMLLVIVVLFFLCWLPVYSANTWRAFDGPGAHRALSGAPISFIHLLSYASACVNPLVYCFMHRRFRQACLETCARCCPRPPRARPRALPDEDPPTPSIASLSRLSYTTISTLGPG

D(1A) dopamine receptor = D(1A) dopamine receptor (Homo sapiens, UniProt P21728); format: functional, cell-based
[3] = molecular target: T2, Equilibrative nucleoside transporter 1 (Homo sapiens, UniProt Q99808)
T2 sequence (Q99808 whole entry): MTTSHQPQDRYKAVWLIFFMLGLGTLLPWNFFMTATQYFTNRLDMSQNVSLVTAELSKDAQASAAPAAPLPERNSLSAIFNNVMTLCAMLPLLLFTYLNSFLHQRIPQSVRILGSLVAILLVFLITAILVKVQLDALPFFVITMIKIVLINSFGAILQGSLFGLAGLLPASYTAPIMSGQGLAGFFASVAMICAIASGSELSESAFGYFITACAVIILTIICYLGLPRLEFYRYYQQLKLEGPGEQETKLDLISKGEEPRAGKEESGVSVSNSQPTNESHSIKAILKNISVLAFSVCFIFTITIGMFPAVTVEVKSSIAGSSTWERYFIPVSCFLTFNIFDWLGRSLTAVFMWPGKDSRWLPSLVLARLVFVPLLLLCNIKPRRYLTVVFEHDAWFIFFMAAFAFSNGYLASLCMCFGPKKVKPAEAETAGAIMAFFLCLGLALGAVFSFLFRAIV

[4] = molecular target: T3, Alpha-2C adrenergic receptor (Homo sapiens, UniProt P18825); format: functional
T3 sequence (P18825 whole entry): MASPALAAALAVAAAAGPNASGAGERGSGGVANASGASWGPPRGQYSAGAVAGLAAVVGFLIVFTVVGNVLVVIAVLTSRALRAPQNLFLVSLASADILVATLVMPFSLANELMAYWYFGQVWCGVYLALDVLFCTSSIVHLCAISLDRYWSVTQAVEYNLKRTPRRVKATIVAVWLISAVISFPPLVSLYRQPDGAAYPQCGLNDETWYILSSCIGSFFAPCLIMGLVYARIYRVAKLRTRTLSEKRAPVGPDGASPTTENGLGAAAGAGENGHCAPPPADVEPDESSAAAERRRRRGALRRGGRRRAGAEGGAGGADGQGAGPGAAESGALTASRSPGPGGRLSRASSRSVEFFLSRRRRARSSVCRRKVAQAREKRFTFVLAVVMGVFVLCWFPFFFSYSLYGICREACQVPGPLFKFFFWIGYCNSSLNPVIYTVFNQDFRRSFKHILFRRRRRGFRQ

[5] = molecular target: T4, 5-hydroxytryptamine receptor 2C (Homo sapiens, UniProt P28335)
T4 sequence (P28335 whole entry): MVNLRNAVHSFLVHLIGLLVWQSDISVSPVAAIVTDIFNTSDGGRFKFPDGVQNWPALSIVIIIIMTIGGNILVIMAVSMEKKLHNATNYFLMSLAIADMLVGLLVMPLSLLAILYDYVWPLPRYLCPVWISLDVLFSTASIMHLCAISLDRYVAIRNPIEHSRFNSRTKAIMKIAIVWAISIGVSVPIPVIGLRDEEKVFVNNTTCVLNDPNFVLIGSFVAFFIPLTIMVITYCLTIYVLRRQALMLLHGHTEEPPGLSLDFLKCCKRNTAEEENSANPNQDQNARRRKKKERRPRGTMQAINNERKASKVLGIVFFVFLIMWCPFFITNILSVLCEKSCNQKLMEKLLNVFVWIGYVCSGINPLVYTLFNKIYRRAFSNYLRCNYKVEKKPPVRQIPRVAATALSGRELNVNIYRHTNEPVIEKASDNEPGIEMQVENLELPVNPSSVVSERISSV

[6] = molecular target: Gamma-aminobutyric acid receptor subunit alpha-1 (Rattus norvegicus, UniProt P62813); format: functional
[7] = molecular target: Sodium-dependent dopamine transporter (Homo sapiens, UniProt Q01959)
[8] = molecular target: Voltage-gated inwardly rectifying potassium channel KCNH2 (Homo sapiens, UniProt Q12809); format: functional; conditions: read-out: AC50
Cannabinoid receptor 1 = Cannabinoid receptor 1 (Homo sapiens, UniProt P21554); format: functional, cell-based
[9] = molecular target: T5, Alpha-1A adrenergic receptor (Homo sapiens, UniProt P35348); format: functional, cell-based
T5 sequence (P35348 whole entry): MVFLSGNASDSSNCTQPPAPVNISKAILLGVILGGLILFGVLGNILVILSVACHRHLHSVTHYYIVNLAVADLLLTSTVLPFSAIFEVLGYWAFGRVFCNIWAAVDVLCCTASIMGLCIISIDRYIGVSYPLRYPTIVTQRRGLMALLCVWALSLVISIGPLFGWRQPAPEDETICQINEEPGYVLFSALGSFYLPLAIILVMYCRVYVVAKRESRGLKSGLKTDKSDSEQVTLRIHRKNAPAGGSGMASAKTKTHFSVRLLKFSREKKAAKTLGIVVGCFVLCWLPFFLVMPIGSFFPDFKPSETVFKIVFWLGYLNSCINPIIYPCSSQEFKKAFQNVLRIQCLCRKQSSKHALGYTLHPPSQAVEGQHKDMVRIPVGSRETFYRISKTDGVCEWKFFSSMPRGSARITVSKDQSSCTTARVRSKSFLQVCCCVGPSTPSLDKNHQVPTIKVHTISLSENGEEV
Note: assay procedure not described here.

Gamma-aminobutyric acid receptor subunit alpha-1, sequence (P62813 whole entry): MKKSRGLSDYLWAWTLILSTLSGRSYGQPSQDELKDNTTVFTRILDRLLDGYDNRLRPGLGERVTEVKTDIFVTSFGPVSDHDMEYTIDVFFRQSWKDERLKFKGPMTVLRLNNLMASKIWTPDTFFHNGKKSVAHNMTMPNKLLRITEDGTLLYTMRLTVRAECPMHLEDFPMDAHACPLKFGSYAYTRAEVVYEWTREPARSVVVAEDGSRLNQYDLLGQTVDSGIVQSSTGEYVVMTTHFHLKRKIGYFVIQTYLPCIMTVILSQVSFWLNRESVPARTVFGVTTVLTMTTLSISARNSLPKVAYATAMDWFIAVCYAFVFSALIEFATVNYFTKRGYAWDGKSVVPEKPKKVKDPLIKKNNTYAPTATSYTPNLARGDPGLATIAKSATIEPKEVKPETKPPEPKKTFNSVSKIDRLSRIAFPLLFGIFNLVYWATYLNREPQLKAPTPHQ
Sodium-dependent dopamine transporter, sequence (Q01959 whole entry): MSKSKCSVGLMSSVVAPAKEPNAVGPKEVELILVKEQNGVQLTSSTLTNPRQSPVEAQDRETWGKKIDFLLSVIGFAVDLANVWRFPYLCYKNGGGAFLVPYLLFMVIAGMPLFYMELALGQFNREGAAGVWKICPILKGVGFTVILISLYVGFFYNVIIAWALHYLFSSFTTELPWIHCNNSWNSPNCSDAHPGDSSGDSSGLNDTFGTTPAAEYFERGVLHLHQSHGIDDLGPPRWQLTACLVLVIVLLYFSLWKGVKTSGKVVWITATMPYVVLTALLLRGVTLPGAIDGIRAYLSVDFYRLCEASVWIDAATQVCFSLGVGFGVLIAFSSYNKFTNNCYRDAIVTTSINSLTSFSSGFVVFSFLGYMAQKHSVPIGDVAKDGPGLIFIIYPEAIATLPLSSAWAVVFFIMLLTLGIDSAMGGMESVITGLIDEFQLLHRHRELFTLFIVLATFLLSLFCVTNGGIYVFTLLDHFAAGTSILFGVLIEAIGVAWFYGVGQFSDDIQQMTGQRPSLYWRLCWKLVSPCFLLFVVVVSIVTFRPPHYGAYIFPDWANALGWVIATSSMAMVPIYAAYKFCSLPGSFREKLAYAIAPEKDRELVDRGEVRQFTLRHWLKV
Vasopressin V2 receptor, sequence (P30518 whole entry): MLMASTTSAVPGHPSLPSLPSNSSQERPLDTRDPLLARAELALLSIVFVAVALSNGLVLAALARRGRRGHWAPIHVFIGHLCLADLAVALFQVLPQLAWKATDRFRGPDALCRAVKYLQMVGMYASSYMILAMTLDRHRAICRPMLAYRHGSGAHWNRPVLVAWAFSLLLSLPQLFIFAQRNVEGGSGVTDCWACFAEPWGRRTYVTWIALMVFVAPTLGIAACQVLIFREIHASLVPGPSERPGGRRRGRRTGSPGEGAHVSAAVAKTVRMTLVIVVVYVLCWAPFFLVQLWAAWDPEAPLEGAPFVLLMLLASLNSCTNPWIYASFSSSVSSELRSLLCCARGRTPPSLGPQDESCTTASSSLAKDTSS
Voltage-gated inwardly rectifying potassium channel KCNH2, sequence (Q12809 whole entry): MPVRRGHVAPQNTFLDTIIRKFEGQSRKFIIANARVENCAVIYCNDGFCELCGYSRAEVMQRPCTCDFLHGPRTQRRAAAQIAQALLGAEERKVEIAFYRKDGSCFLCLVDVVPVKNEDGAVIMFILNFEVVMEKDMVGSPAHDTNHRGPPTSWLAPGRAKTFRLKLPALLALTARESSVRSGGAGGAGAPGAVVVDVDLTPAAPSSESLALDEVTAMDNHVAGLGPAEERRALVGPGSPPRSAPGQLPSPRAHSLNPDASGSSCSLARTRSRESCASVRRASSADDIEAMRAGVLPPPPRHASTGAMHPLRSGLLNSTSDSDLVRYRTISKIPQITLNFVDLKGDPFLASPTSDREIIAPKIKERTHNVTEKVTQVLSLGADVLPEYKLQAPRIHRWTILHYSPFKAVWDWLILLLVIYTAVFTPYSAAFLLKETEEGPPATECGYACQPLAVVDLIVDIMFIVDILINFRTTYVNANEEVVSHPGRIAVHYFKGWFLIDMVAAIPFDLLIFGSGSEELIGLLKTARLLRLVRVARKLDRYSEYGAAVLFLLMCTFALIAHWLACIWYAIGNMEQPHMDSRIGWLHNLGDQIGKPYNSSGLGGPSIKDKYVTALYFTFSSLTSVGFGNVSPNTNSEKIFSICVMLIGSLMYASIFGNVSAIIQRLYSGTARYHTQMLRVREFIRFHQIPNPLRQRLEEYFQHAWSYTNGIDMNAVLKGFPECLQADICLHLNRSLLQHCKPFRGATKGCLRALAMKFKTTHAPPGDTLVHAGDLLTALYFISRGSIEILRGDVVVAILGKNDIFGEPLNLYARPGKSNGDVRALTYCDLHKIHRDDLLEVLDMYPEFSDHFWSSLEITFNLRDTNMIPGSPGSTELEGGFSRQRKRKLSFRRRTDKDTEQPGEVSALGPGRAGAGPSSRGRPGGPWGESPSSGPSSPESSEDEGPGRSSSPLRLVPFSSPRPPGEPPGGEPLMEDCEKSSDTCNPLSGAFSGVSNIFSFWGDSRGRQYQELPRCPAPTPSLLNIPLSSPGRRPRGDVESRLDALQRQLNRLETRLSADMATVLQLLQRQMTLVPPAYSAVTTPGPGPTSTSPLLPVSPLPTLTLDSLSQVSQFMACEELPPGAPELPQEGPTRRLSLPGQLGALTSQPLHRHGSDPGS
Cannabinoid receptor 1, sequence (P21554 whole entry): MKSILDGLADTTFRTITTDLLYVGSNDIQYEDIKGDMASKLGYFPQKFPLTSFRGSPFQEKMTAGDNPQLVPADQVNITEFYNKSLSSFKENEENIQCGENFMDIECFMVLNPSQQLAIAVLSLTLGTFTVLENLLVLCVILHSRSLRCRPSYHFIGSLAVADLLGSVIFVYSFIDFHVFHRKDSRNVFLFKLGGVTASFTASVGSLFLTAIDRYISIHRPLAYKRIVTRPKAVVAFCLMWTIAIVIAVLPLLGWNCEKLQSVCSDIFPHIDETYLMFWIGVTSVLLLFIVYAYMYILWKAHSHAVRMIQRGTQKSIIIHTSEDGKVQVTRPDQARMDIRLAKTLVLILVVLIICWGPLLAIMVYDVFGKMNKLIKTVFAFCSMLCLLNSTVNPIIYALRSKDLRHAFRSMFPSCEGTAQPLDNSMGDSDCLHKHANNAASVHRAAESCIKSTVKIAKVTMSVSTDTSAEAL
D(1A) dopamine receptor, sequence (P21728 whole entry): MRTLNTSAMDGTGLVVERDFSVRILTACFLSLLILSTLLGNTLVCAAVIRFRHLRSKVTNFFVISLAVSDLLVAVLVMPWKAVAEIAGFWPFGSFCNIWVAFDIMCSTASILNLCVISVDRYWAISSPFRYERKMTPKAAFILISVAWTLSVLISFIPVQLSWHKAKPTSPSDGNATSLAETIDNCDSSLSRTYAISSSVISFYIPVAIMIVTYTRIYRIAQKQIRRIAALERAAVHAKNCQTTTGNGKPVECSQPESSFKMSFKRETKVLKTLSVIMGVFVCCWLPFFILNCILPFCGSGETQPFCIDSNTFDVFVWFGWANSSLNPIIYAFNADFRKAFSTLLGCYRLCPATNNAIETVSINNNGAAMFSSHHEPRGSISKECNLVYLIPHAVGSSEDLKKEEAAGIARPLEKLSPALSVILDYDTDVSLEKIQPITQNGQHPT
Histamine H2 receptor, sequence (P25021 whole entry): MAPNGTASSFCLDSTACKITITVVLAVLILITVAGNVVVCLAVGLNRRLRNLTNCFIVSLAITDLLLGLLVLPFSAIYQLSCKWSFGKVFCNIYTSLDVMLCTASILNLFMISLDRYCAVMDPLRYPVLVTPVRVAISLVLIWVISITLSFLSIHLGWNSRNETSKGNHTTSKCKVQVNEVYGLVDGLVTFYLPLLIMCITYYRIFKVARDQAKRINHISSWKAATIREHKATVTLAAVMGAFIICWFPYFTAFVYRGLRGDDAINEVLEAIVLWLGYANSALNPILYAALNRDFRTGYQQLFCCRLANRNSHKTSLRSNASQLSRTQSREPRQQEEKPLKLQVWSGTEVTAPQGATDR

Structure (SMILES)	AC50 [1]	AC50 (Vasopressin V2 receptor)	AC50 (Histamine H2 receptor)	AC50 [2]	AC50 (D(1A) dopamine receptor)	AC50 [3]	AC50 [4]	AC50 [5]	AC50 [6]	AC50 [7]	AC50 [8]	AC50 (Cannabinoid receptor 1)	AC50 [9]
COc1ccc(/C=C/C(=O)Nc2ccccc2C(=O)O)cc1OC	> 30 µM	> 30 µM	> 30 µM	> 30 µM	> 30 µM	> 30 µM	> 30 µM	> 30 µM	> 30 µM	> 30 µM	–	–	–
C=C[C@@]1(C)CC(=O)[C@]2(O)[C@@]3(C)[C@@H](O)CCC(C)(C)[C@@H]3[C@H](OC(=O)CCN(C)C)[C@H](OC(C)=O)[C@@]2(C)O1	> 30 µM	> 30 µM	–	> 30 µM	–	> 30 µM	> 30 µM	> 30 µM	> 30 µM	> 30 µM	7.8 µM	> 30 µM	–
CC(=O)OCC(=O)[C@@]1(O)CC[C@H]2[C@@H]3CCC4=CC(=O)CC[C@]4(C)C3=CC[C@@]21C [ANECORTAVE ACETATE]	> 10 µM	> 10 µM	> 10 µM	–	> 10 µM	> 10 µM	> 10 µM	> 30 µM	> 10 µM	> 10 µM	> 30 µM	> 30 µM	> 30 µM
CCCCCCNC(=O)n1cc(F)c(=O)[nH]c1=O [CARMOFUR]	> 30 µM	> 30 µM	> 30 µM	> 30 µM	> 30 µM	> 30 µM	> 30 µM	> 30 µM	> 30 µM	> 30 µM	> 30 µM	–	–
COc1cccc2c1C(=O)c1c(O)c3c(c(O)c1C2=O)C[C@@](O)(C(C)=O)C[C@@H]3O[C@H]1C[C@H](N)[C@H](O)[C@H](C)O1 [DAUNORUBICIN]	> 30 µM	> 10 µM	> 30 µM	> 30 µM	> 30 µM	14.3 µM	17.5 µM	14.1 µM	> 30 µM	17.7 µM	> 30 µM	–	–
COC(=O)N[C@@H](C)CNc1nccc(-c2cn(C(C)C)nc2-c2cc(Cl)cc(NS(C)(=O)=O)c2F)n1 [ENCORAFENIB]	> 30 µM	> 30 µM	> 30 µM	22.1 µM	> 30 µM	25.9 µM	> 30 µM	> 30 µM	23.1 µM	> 30 µM	> 30 µM	–	–
Nc1nc(F)nc2c1ncn2[C@@H]1O[C@H](COP(=O)(O)O)[C@@H](O)[C@@H]1O [FLUDARABINE PHOSPHATE]	> 30 µM	> 30 µM	> 30 µM	> 30 µM	> 30 µM	> 30 µM	> 30 µM	> 30 µM	> 30 µM	> 30 µM	> 30 µM	–	> 30 µM
CC#CCn1c(N2CCC[C@@H](N)C2)nc2c1c(=O)n(Cc1nc(C)c3ccccc3n1)c(=O)n2C [LINAGLIPTIN]	> 10 µM	> 30 µM	> 10 µM	> 30 µM	–	> 30 µM	> 10 µM	> 30 µM	> 10 µM	> 30 µM	–	–	–
O=C1CN=C(c2ccccc2)c2cc(Cl)ccc2N1 [NORDAZEPAM]	> 10 µM	> 30 µM	> 10 µM	> 30 µM	> 10 µM	> 30 µM	> 10 µM	> 30 µM	0.049 µM	> 10 µM	–	> 30 µM	–
CC(CCc1ccccc1)NC(C)C(O)c1ccc(O)cc1 (stereo not given) [NYLIDRIN]	> 10 µM	> 30 µM	> 10 µM	> 30 µM	> 10 µM	> 30 µM	0.64 µM	> 30 µM	> 10 µM	1.44 µM	6.3 µM	> 30 µM	–
CC[N+]1(C)CCCC(OC(=O)C(O)(c2ccccc2)c2ccccc2)C1 (stereo not given) [PIPENZOLATE]	> 30 µM	> 30 µM	> 30 µM	> 30 µM	> 30 µM	–	> 30 µM	> 30 µM	> 30 µM	> 30 µM	0.97 µM	> 30 µM	–
NC(=O)CCC/N=C(\c1ccc(Cl)cc1)c1cc(F)ccc1O [PROGABIDE]	> 10 µM	> 10 µM	> 10 µM	–	> 10 µM	> 10 µM	> 10 µM	> 30 µM	> 10 µM	> 10 µM	> 30 µM	–	> 30 µM
Cc1cc2nc3c(=O)[nH]c(=O)nc-3n(C[C@H](O)[C@H](O)[C@H](O)COP(=O)(O)O)c2cc1C [RIBOFLAVIN 5'-PHOSPHATE]	15 µM	> 30 µM	> 30 µM	> 30 µM	> 30 µM	> 30 µM	> 30 µM	24 µM	> 30 µM	> 30 µM	–	–	5.1 µM
CC(NCCc1ccc(O)cc1)C(O)c1ccc(O)cc1 (stereo not given) [RITODRINE]	> 10 µM	> 30 µM	> 30 µM	> 30 µM	> 10 µM	> 30 µM	> 30 µM	> 30 µM	> 30 µM	19.5 µM and 12.3 µM	> 30 µM	–	2 µM
Cc1cccc(N(C)C(=S)Oc2ccc3ccccc3c2)c1 [TOLNAFTATE]	25 µM	> 10 µM	> 30 µM	–	> 30 µM	> 10 µM	> 30 µM	> 30 µM	> 10 µM	> 10 µM	> 30 µM	–	> 30 µM

From ChEMBL document CHEMBL5291721, “A preclinical secondary pharmacology resource illuminates target-adverse drug reaction associations of marketed drugs” (Nat Commun, 2023)
